According to patent US20070134261A1, “Effectors of innate immunity” (priority 2001, published 2007):
Read-outs that look alike come from different tables or passages of the source. No end group written: not given here.

Experiments:
HBE cells = assay: WST-1 assay (cell viability); format: cell-based, human
Experimental: (§1) The potential toxicity of the peptides was measured in two ways. First, the Cytotoxicity Detection Kit (Roche) (Lactate dehydrogenase-LDH) Assay was used. It is a colorimetric assay for the quantification of cell death and cell lysis, based on the measurement of LDH activity released from the cytosol of damaged cells into the supernatant. LDH is a stable cytoplasmic enzyme present in all cells and it is released into the cell culture supernatant upon damage of the plasma membrane. An increase in the amount of dead or plasma membrane-damaged cells results in an increase of the LDH enzyme activity in the culture supernatant as measured with an ELISA plate reader, OD490 nm (the amount of color formed in the assay is proportional to the number of lysed cells). In this assay, human bronchial epithelial cells (I6HBEo14, HBE) cells were incubated with 100 μg of peptide for 24 hours, the supernatant removed and tested for LDH. The other assay used to measure toxicity of the cationic peptides was the WST-1 assay (Roche). This assay is a colorimetric assay for the quantification of cell proliferation and cell viability, based on the cleavage of the tetrazolium salt WST-1 by mitochondrial dehydrogenases in viable cells (a non-radioactive alternative to the [^3H]-thymidine incorporation assay). In this assay, HBE cells were incubated with 100 μg of peptide for 24 hours, and then 10 μl/well Cell Proliferation Reagent WST-1 was added. The cells are incubated with the reagent and the plate is then measured with an ELISA plate reader, OD490 nm.

A549 epithelial cells = assay: Human Operon arrays (PRHU04-S1) of A549 cells treated with peptide alone (Tables 31-37, 53); conditions: peptide 50 μg/ml, 4 h, A549 cells
[1] = format: cell-based
[2] = test system: human bronchial epithelial cells (HBE); assay: LDH release assay (Cytotoxicity Detection Kit); format: cell-based; conditions: 100 μg/ml, 24 hours; no peptide control 1.0 ± 0.05
Experimental: as §1

human PBMC = assay: TLR agonist / cytokine induced cytokine secretion by PBMC (ELISA, multiplex bead immunoassay); format: cell-based
Experimental: All assays were performed in triplicate.

[3] = test system: A549 human epithelial cells; assay: Induction of chemokines (IL-8, MCP-1) in A549 cells (ELISA); format: cell-based; conditions: peptide 10 ug/ml, 24 hr
Experimental: The murine macrophage cell line RAW 264.7, THP-1 cells (human monocytes), a human epithelial cell line (A549), human bronchial epithelial cells (16HBEo14), and whole human blood were used. HBE cells were grown in MEM with Earle's. THP-1 cells were grown and maintained in RPMI 1640 medium. The RAW and A549 cell lines were maintained in DMEM supplemented with 10% fetal calf serum. […] DMEM was aspirated from cells grown overnight and replaced with fresh medium. After incubation of the cells with peptide, the release of chemokines into the culture supernatant was determined by ELISA (R&D Systems, Minneapolis, Minn.).

[4] = Staphylococcus aureus, overnight, 96-well plate

RPRYPWWPWWPYRPRK [SEQ ID NO: 19]
OD490 nm (WST-1 cell viability) (HBE cells): 1.42 ± 0.15 OD490 nm
ID#:ctrl intensity ratio, X65962 cytochrome P-450 (A549 epithelial cells): 3.8
MIC, C. rhod. ([1]; 24 h): 4 µg/mL
MIC, E. coli ([1]; 24 h): 8 µg/mL
MIC, EHEC ([1]; 24 h): 4 µg/mL
MIC, P. aerug. ([1]; 24 h): 16 µg/mL
MIC, S. aureus ([1]; 24 h): 16 µg/mL
MIC, S. typhim. ([1]; 24 h): 64 µg/mL
LDH Release (OD490 nm) [2]: 1.08 ± 0.02 OD490 nm

RKMVKVDVRGIMIRKDRR [SEQ ID NO: 29]
OD490 nm (WST-1 cell viability) (HBE cells): 1.75 ± 0.09 OD490 nm
MIC, C. rhod. ([1]; 24 h): 32 µg/mL
MIC, E. coli ([1]; 24 h): 2 µg/mL
MIC, EHEC ([1]; 24 h): 4 µg/mL
MIC, S. typhim. ([1]; 24 h): 16 µg/mL
LDH Release (OD490 nm) [2]: 0.99 ± 0.02 OD490 nm

IL-1β
IL-6, Ave pg/ml (human PBMC; 4 hr, IL-1β −SEQ ID NO: 1): 39 pg/mL
IL-8, Ave pg/ml (human PBMC; 4 hr, IL-1β −SEQ ID NO: 1): 124 pg/mL
TNF-α, Ave pg/ml (human PBMC; 4 hr, IL-1β −SEQ ID NO: 1): 97 pg/mL
IL-6, Ave pg/ml (human PBMC; 24 hr, IL-1β −SEQ ID NO: 1): 645 pg/mL
IL-8, Ave pg/ml (human PBMC; 24 hr, IL-1β −SEQ ID NO: 1): 3034 pg/mL
TNF-α, Ave pg/ml (human PBMC; 24 hr, IL-1β −SEQ ID NO: 1): 20 pg/mL

RRDCRRVMVRGIDIKAK [SEQ ID NO: 36]
OD490 nm (WST-1 cell viability) (HBE cells): 1.58 ± 0.05 OD490 nm
MIC, C. rhod. ([1]; 24 h): 32 µg/mL
MIC, E. coli ([1]; 24 h): 32 µg/mL
MIC, EHEC ([1]; 24 h): 16 µg/mL
MIC, S. typhim. ([1]; 24 h): 32 µg/mL
LDH Release (OD490 nm) [2]: 0.85 ± 0.04 OD490 nm

RAAFKWAWAWWRRK [SEQ ID NO: 23]
OD490 nm (WST-1 cell viability) (HBE cells): 1.14 ± 0.24 OD490 nm
MIC, C. rhod. ([1]; 24 h): 4 µg/mL
MIC, E. coli ([1]; 24 h): 4 µg/mL
MIC, EHEC ([1]; 24 h): 4 µg/mL
MIC, P. aerug. ([1]; 24 h): 8 µg/mL
MIC, S. aureus ([1]; 24 h): 8 µg/mL
MIC, S. typhim. ([1]; 24 h): 16 µg/mL
LDH Release (OD490 nm) [2]: 1.26 ± 0.46 OD490 nm

KWKSLVMMFKKPARRIFHTALKPISS [SEQ ID NO: 51]
MIC, C. rhod. ([1]; Citobacter rhodensis, overnight, 96-well plate): 4 µg/mL
MIC, EHEC ([1]; Enterohaemorrhagic E. coli, overnight, 96-well plate): 8 µg/mL
MIC, E. coli ([1]; Escherichia coli, overnight, 96-well plate): 4 µg/mL
MIC, P. aerug. ([1]; Pseudomonas aeruginosa, overnight, 96-well plate): 8 µg/mL
MIC, S. typhim. ([1]; Salmonella enteritidis ssp. typhimurium, overnight, 96-well plate): 32 µg/mL
MIC, S. aureus [1, 4]: >
IL-8 [3]: 0.255 ng/mL

5′-TCATGACGTTCCTGACGTT-3′ (chemistry not given here) [CpG, reference compound]
IL-6, Ave pg/ml (human PBMC; 4 hr, CpG −SEQ ID NO: 1): <7 pg/mL
IL-8, Ave pg/ml (human PBMC; 4 hr, CpG −SEQ ID NO: 1): 20 pg/mL
TNF-α, Ave pg/ml (human PBMC; 4 hr, CpG −SEQ ID NO: 1): 28 pg/mL
IL-6, Ave pg/ml (human PBMC; 24 hr, CpG −SEQ ID NO: 1): 66 pg/mL
IL-8, Ave pg/ml (human PBMC; 24 hr, CpG −SEQ ID NO: 1): 339 pg/mL
TNF-α, Ave pg/ml (human PBMC; 24 hr, CpG −SEQ ID NO: 1): 28 pg/mL

KKQMMKRVDVRGISVKRKR [SEQ ID NO: 34]
OD490 nm (WST-1 cell viability) (HBE cells): 0.96 ± 0.05 OD490 nm
MIC, C. rhod. ([1]; 24 h): 64 µg/mL
MIC, E. coli ([1]; 24 h): 8 µg/mL
MIC, EHEC ([1]; 24 h): 8 µg/mL
MIC, S. typhim. ([1]; 24 h): 32 µg/mL
LDH Release (OD490 nm) [2]: 1.02 ± 0.03 OD490 nm

KESIKVIIRGMMVRMKK [SEQ ID NO: 35]
OD490 nm (WST-1 cell viability) (HBE cells): 1.00 ± 0.08 OD490 nm
MIC, C. rhod. ([1]; 24 h): 8 µg/mL
MIC, E. coli ([1]; 24 h): 4 µg/mL
MIC, EHEC ([1]; 24 h): 4 µg/mL
MIC, P. aerug. ([1]; 24 h): 64 µg/mL
MIC, S. aureus ([1]; 24 h): 128 µg/mL
MIC, S. typhim. ([1]; 24 h): 8 µg/mL
LDH Release (OD490 nm) [2]: 0.88 ± 0.03 OD490 nm

KWKKWAHSPRKVLTRIFHTALKPISS [SEQ ID NO: 50]
MIC, C. rhod. ([1]; 24 h): 16 µg/mL
MIC, E. coli ([1]; 24 h): 8 µg/mL
MIC, EHEC ([1]; 24 h): 8 µg/mL
MIC, P. aerug. ([1]; 24 h): 16 µg/mL
MIC, S. typhim. ([1]; 24 h): 16 µg/mL
MIC, S. aureus [1, 4]: >
IL-8 [3]: 0.141 ng/mL

RAPYWPWAWARPRK [SEQ ID NO: 21]
OD490 nm (WST-1 cell viability) (HBE cells): 1.28 ± 0.07 OD490 nm
MIC, C. rhod. ([1]; 24 h): 32 µg/mL
MIC, E. coli ([1]; 24 h): 64 µg/mL
MIC, EHEC ([1]; 24 h): 32 µg/mL
MIC, P. aerug. ([1]; 24 h): 96 µg/mL
MIC, S. aureus ([1]; 24 h): 64 µg/mL
MIC, S. typhim. ([1]; 24 h): 64 µg/mL
LDH Release (OD490 nm) [2]: 1.06 ± 0.04 OD490 nm
